Drawing on PMC10619443, “Structural snapshots of Mycobacterium tuberculosis enolase reveal dual mode of 2PG binding and its implication in enzyme catalysis” (IUCrJ, 2023), this text covers X-ray crystal structure for one compound.

This test concerns the target T1, MtEno (Mycobacterium tuberculosis, UniProt P9WNL1).
T1 construct: gene eno

T1 sequence (P9WNL1 whole entry): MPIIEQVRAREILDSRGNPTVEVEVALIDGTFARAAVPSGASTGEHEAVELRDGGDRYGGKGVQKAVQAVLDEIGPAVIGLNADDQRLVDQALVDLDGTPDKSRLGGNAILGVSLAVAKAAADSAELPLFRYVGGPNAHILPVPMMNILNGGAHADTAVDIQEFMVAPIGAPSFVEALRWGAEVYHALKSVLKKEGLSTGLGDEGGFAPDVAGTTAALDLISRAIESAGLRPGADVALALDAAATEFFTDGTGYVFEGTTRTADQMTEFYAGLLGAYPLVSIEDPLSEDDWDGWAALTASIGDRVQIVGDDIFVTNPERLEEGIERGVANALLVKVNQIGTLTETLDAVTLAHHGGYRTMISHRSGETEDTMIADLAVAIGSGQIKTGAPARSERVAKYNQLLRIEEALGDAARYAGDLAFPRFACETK

With `O=C(O)[C@@H](CO)OP(=O)(O)O` [2PG, 2-phosphoglycerate], the X-ray crystal structure entry is “Of the two structures of MtEno-2PG, one harbored the 2PG-canonical pose”.
